Measurements taken from patent US20130225669A1 (priority 2012, published 2013).

Test system: Bacillus atrophaeus spores
Test: Qualitative antibacterial effects on spore strips in Releasat medium
Type: cell-based
Conditions: one week treatment
Experimental: The antibacterial effects of genipin solutions on Bacillus atrophaeus spores was assessed. Using aseptic technique, B. atrophaeus mini spore strips (N=4 per group) with 1.2×10^6 spores per strip (North American Science Associates, Inc., Northwood, Ohio, USA) were either untreated, or treated with either 1 mL PBS, 0.625% genipin in PBS (1.4×10^13 genipin molecules per spore), 90% ethanol, 10% genipin in 90% ethanol (2.2×10^14 genipin molecules per spore), or 10% formalin for one week. Ten percent genipin was used in 90% ethanol for direct comparison to 10% formalin. Solutions were passed through a 0.2 μm Whatman filter (Fisher Scientific, Pittsburgh, Pa., USA) prior to being used to remove extraneous bacteria.
After treating the spore strips for one week they were transferred to Releasat® rapid-readout color changing vials (SGM Biotech, Bozeman, Mont., USA). Releasat® vials have specially formulated soybean-casein digest medium and a pH indicator designed to change color from orange to yellow in the presence of B. atrophaeus growth within 72 hours or remain orange if the spore strips are sterile. The spore strips treated with 10% genipin in 90% ethanol were removed from their respective medium vials and washed in 10 mL of sterile 90% ethanol for 15 minutes after it was noticed that within 90 minutes of placement into the Releasat® medium that the color changed from orange to brown (genipin-induced color change). These spore strips were placed in new Releasat® vials after washing. Spores were incubated at 37° C. and vials were checked after 24, 48, and 72 hours for color change and assessments of turbidity.

| Compound | turbidity of medium (0.625% genipin in PBS) | color of Releasat medium (orange sterile, yellow growth) (0.625% genipin in PBS, within 24 hours) | turbidity of medium (10% genipin in 90% ethanol) | color of Releasat medium (orange sterile, yellow growth) (10% genipin in 90% ethanol, within 24 hours) | color of Releasat medium (orange sterile, yellow growth) (10% formalin, read after 72 hours) |
| --- | --- | --- | --- | --- | --- |
| COC(=O)C1=CO[C@@H](O)C2C(CO)=CC[C@H]12 (stereo in doubt) [genipin, methyl (1R,2R,6S)-2-hydroxy-9-(hydroxymethyl)-3-oxabicyclo [4.3.0]nona-4,8-diene-5-carboxylate] | less turbid than the PBS and untreated control at all time points | changed to yellow | less turbid than the 90% ethanol and untreated control after 24 and 48 hours only | changed to yellow | – |
| C=O [formalin, reference compound] | – | – | – | – | remained orange |
